The numbers were not newly measured in US20210220455A1, “COMPOSITIONS AND METHODS FOR PERSONALIZED NEOPLASIA VACCINES” (The Broad Institute, Inc., priority 2013, published 2021), which cites them from elsewhere.

In data set [1] the test system is ovarian carcinoma patients. Particulars: cited from earlier work.
The subject of the next data set is healthy human volunteers. To be noted: cited from earlier work.

For the substance “Polyinosinic-Polycytidylic Acid-poly-L-lysine Carboxymethylcellulose [poly-ICLC]”, the “generation of NY-ESO-1-specific CD4+ and CD8+ T-cell and antibody responses” value in data set [1] (1.4 mg poly-ICLC and Montanide added to OLP vs OLP alone or OLP and Montanide) is listed as “markedly enhanced”. In addition, the “patients showing induction of CD4+ and CD8+ T cell and antibody responses to the peptide” value in data set [1] (poly-ICLC with NY-ESO-1 peptide vaccine and Montanide) is given as greater than 90%. The “differentially expressed genes versus placebo” value in the data set on healthy human volunteers (8 volunteers, one single s.c. administration vs 4 placebo subjects) was “up to 212 genes”. For the same substance, the “safety in human volunteer study” value with healthy human volunteers (human, in vivo) is listed as “safe”.
